From patent US20040137455A1, “Diagnosis of cancer or benign tumor using the aberrant expression product of the klk4 gene” (priority 2001, published 2004)

Tests used:
[1] = system: K4 protein in the KLE cell line; assay: Western analysis of K4 protein levels in KLE cells after steroid treatment; type: cell-based, human; conditions: KLE endometrial cancer cell line, 10 nmol/L steroid, 48 h, 200 μg intracellular protein
Description: The endometrial cancer cell lines, Ishikawa (well differentiated), HEC1A, HEC1B, RL95-2 (moderately differentiated) and KLE (poorly differentiated) and the prostate cancer cell line LNCaP, used for a control, were obtained from the American Type Culture Collection, Rockville, Md. Prostate and kidney control tissue was obtained from Royal Brisbane Hospital and Princess Alexandra Hospital respectively. All cell lines were cultured in DMEM (Life Technologies, Rockville, Md.) with 10% FCS, 50 U/mL Penicillin G and 50 μg/mL Streptomycin (CSL Biosciences, Melbourne, Australia) at 37 C and 5% CO2. The regulation studies were performed in triplicate in the KLE cell line using phenol red and FCS-free media. After 24 h, fresh media was supplemented with 10 nmol/L 17β-estradiol or progesterone, (Sigma Chemical Company, St Louis, Mo.) and the cells were maintained for 48 h with these steroids. In addition, […] progesterone was added to one group of oestrogen-treated cells after 24 h. […] Detection was determined using X-ray film and visualisation of the chemiluminescence signal. Fold changes in the level of signal were assessed using the Hewlett Packard Scan Jet IICX and ImagQuant™ 4.21A software (Molecular Dynamics, Amersham)

[2] = system: hK4 intracellular levels in OVCAR-3; assay: Western blot and densitometry of hK4 intracellular levels in OVCAR-3 cells (oestrogen regulation); type: cell-based, human
From the text: Normal ovary and ovarian tumour samples were obtained at surgery from women who underwent laparotomy for benign and malignant conditions in the Department of Obstetrics and Gynaecology at the Royal Women's Hospitals and Monash Medical Centre. Ethics approval was obtained from the respective institutional Ethics Committees and informed consent was obtained from all patients. Epithelial cells from normal, benign and malignant ovaries were isolated from some of these tissue samples and the primary cultured cells were grown in M199 (Sigma, St. Louis, Mo., USA) and MCDB 105 (Sigma) media supplemented with 10% FCS and 10 ng/mL human epidermal growth factor (Boehringer Mannheim, Germany) (17). The ovarian cancer cell lines, that were used in this study, were derived from late stage serous carcinomas with well (PEO14 and OAW42), moderate (SKOV-3 and OVCAR-3) or poor (JAM, CI-80-13S, PEO1 and PEO4) differentiation. SKOV-3 and OVCAR-3 were from American Type Culture Collection, and the remainder have been described previously (18, 19). These cell lines were grown in RPMI (Life Technologies, Inc., Gaithersburg. MD, USA) supplemented with 10% FCS. For the oestrogen regulation study, OVCAR-3 cells were grown to 50% confluency. […]

## C[C@]12CC[C@@H]3c4ccc(O)cc4CC[C@H]3[C@@H]1CC[C@@H]2O [estradiol, 17β-estradiol]
[1]
  levels of K4 protein elevated compared to the control: 16 fold
[2]; OVCAR-3, 100 nM, over 30 hrs
  effect on intracellular hK4 levels (densitometry of Western blot): up-regulation
[2]; OVCAR-3 ovarian carcinoma cell line, 100 nM, 8-30 hr, time dependent
  up-regulation of hK4 intracellular levels: 1.5-4 fold

## CC(=O)[C@H]1CC[C@H]2[C@@H]3CCC4=CC(=O)CC[C@]4(C)[C@H]3CC[C@]12C [progesterone]
[1]
  levels of K4 protein elevated compared to the control: 27 fold
